The source of these data is PubChem BioAssay AID720672 (NMMLSC, 2013).

In general, pIC50 refers to −log10 of the IC50, conventionally taken in molar units. What is called IC50 is the concentration at which inhibition is half-maximal.

In the assay the target is Lethal factor (Bacillus anthracis) (UniProt P15917). The assay is described as follows: Bacillus anthracis LF protease inhibitors, dose response, biochemical, multiplex microsphere (AID 720672). Conditions: multiplex microsphere LF protease substrate cleavage, flow cytometry. On the technique in general: A flow cytometer gives signals particle by particle.
Lethal factor (Bacillus anthracis), sequence (P15917 whole entry, looked up): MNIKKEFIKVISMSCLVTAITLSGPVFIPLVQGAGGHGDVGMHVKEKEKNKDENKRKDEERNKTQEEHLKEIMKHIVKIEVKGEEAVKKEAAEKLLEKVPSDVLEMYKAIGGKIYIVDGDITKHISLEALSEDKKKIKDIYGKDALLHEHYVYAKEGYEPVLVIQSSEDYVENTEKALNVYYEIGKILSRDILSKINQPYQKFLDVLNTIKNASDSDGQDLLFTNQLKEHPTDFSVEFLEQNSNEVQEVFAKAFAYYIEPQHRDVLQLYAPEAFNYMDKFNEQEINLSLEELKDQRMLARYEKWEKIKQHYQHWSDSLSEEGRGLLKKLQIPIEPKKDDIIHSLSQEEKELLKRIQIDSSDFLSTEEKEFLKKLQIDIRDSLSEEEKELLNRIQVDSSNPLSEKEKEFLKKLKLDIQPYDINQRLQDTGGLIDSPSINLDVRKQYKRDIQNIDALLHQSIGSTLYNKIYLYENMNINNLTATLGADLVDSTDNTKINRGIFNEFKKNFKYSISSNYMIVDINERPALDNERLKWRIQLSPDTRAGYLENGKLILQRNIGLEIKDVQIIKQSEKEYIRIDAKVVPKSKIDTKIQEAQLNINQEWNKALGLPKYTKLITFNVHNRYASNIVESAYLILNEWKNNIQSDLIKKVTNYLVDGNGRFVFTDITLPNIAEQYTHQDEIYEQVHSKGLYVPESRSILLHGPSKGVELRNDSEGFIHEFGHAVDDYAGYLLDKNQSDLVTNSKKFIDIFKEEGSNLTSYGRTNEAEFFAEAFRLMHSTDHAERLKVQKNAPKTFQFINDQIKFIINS

pIC50: −log10 of the molar value. Active and inactive are the calls of the source. No rule for the calls is given here.

As to `COc1ccc(-c2nc3nc(-c4cccc(OC)c4)cn3nc2-c2ccc(OC)cc2)cc1`, the pIC50 is 5.00.

As to `CC(Oc1ccccc1)C(=O)Nc1ccc2nc(-c3ccccc3)c(-c3ccccc3)nc2c1` (configuration not stated), the IC50 is > 20 µM (inactive).

Consider `Cc1ccc(-c2nc3nc(-c4ccc(OC(F)(F)F)cc4)cn3nc2-c2ccc(C)cc2)cc1`, for which the IC50 is > 20 µM (inactive).

In the case of `COc1ccc(-c2nc3nc(-c4ccc(C)cc4)cn3nc2-c2ccc(OC)cc2)cc1`, the IC50 is > 20 µM (inactive).

For `Cc1ccc(-c2nc3nc(-c4ccc(F)cc4)cn3nc2-c2ccc(C)cc2)cc1`, the pIC50 is 5.23.

Take `COc1ccc(-c2nc3nc(-c4ccc(S(C)(=O)=O)cc4)cn3nc2-c2ccc(OC)cc2)cc1`: the IC50 is > 20 µM (inactive).

For the molecule `COc1ccc(-c2cn3nc(-c4ccc(OC)cc4)c(-c4ccc(OC)cc4)nc3n2)cc1`, the IC50 was > 20 µM (inactive).

In the case of `CC(C)OC(=O)Nc1ccc2nc(-c3ccccc3)c(-c3ccccc3)nc2c1`, the IC50 was > 20 µM (inactive).

Regarding `COc1ccccc1-c1cn2nc(-c3ccccc3)c(-c3ccccc3)nc2n1`, the IC50 is > 20 µM (inactive).

Consider `CCCS(=O)(=O)Nc1ccc2nc(-c3ccccc3)c(-c3ccccc3)nc2c1`, for which the IC50 was > 20 µM (inactive).

With `COc1ccc(-c2nc3nc(-c4ccccc4OC)cn3nc2-c2ccc(OC)cc2)cc1`, the pIC50 was 5.21.

Consider `COc1ccc(-c2cn3nc(-c4ccc(C)cc4)c(-c4ccc(C)cc4)nc3n2)c(OC)c1`, for which the IC50 is > 20 µM (inactive).

Regarding `CCCCOC(=O)Nc1ccc2nc(-c3ccccc3)c(-c3ccccc3)nc2c1`, the IC50 is > 20 µM (inactive).

In the case of `CCOC(=O)Nc1ccc2nc(-c3cccs3)c(-c3cccs3)nc2c1`, the IC50 is > 20 µM (inactive).

As for `CS(=O)(=O)c1ccc(-c2cn3nc(-c4ccc(F)cc4)c(-c4ccc(F)cc4)nc3n2)cc1`, the IC50 is > 20 µM (inactive).

For the molecule `COc1ccc(-c2cn3nc(-c4ccc(F)cc4)c(-c4ccc(F)cc4)nc3n2)c(OC)c1`, the pIC50 is 5.54.

Regarding `Clc1ccc(-c2cn3nc(-c4ccccc4)c(-c4ccccc4)nc3n2)c(Cl)c1`, the IC50 was > 20 µM (inactive).

For `Fc1ccc(-c2nc3nc(-c4cccc(F)c4)cn3nc2-c2ccc(F)cc2)cc1`, the pIC50 is 5.17.

For the molecule `COC(=O)Nc1ccc2nc(-c3ccccc3)c(-c3ccccc3)nc2c1`, the IC50 is > 20 µM (inactive).

`COc1cccc(-c2cn3nc(-c4ccccc4)c(-c4ccccc4)nc3n2)c1`: the pIC50 was 4.82.

Take `CC(C)CS(=O)(=O)Nc1ccc2nc(-c3ccccc3)c(-c3ccccc3)nc2c1`: the IC50 was > 20 µM (inactive).

With `O=S(=O)(Nc1ccc2nc(-c3ccccc3)c(-c3ccccc3)nc2c1)C1CC1`, the IC50 is > 20 µM (inactive).

`CCCOC(=O)Nc1ccc2nc(-c3ccccc3)c(-c3ccccc3)nc2c1`: the IC50 was > 20 µM (inactive).

On to `COc1ccc(-c2nc3nc(-c4ccccc4)cn3nc2-c2ccc(OC)cc2)cc1`, for which the negative logarithm of the IC50 (pIC50) is 5.20.

Consider `CCCNC(=O)Nc1ccc2nc(-c3ccccc3)c(-c3ccccc3)nc2c1`, for which the IC50 is > 20 µM (inactive).

With `O=C(Nc1ccc2nc(-c3ccccc3)c(-c3ccccc3)nc2c1)C1CCCCC1`, the IC50 was > 20 µM (inactive).

Take `O=C(Nc1ccc2nc(-c3cccs3)c(-c3cccs3)nc2c1)C1CC1`: the IC50 is > 20 µM (inactive).

As to `O=S(=O)(Nc1ccc2nc(-c3cccs3)c(-c3cccs3)nc2c1)C1CC1`, the IC50 was > 20 µM (inactive).

Take `Cc1ccc(-c2nc3nc(-c4ccc(S(C)(=O)=O)cc4)cn3nc2-c2ccc(C)cc2)cc1`: the IC50 is > 20 µM (inactive).

Regarding `CC(C)(C)NC(=O)Nc1ccc2nc(-c3ccccc3)c(-c3ccccc3)nc2c1`, the IC50 was > 20 µM (inactive).

On to `CCCCOC(=O)Nc1ccc2nc(-c3cccs3)c(-c3cccs3)nc2c1`, for which the pIC50 was 4.79.

`COc1ccc(-c2cn3nc(-c4ccc(F)cc4)c(-c4ccc(F)cc4)nc3n2)cc1`: the pIC50 was 5.19.

In the case of `CC(C)OC(=O)Nc1ccc2nc(-c3cccs3)c(-c3cccs3)nc2c1`, the IC50 is > 20 µM (inactive).

With `CC(C)NC(=O)Nc1ccc2nc(-c3ccccc3)c(-c3ccccc3)nc2c1`, the IC50 was > 20 µM (inactive).

As for `O=C(Nc1ccc2nc(-c3cccs3)c(-c3cccs3)nc2c1)C1CCC1`, the IC50 was > 20 µM (inactive).

For the molecule `Fc1cccc(-c2cn3nc(-c4ccccc4)c(-c4ccccc4)nc3n2)c1`, the pIC50 was 4.94.

On to `COc1ccccc1-c1cn2nc(-c3ccc(C)cc3)c(-c3ccc(C)cc3)nc2n1`, for which the pIC50 was 4.89.

Regarding `COc1ccc(-c2nc3nc(-c4ccc(F)cc4)cn3nc2-c2ccc(OC)cc2)cc1`, the negative logarithm of the IC50 (pIC50) was 5.51.

`COc1ccc(-c2nc3nc(-c4ccc(C#N)cc4)cn3nc2-c2ccc(OC)cc2)cc1`: the IC50 was > 20 µM (inactive).

On to `COc1ccc(-c2cn3nc(-c4ccccc4)c(-c4ccccc4)nc3n2)c(OC)c1`, for which the IC50 was > 20 µM (inactive).

On to `O=C(Nc1ccc2nc(-c3ccccc3)c(-c3ccccc3)nc2c1)C1CC1`, for which the IC50 was > 20 µM (inactive).

For `FC(F)(F)Oc1ccc(-c2cn3nc(-c4ccccc4)c(-c4ccccc4)nc3n2)cc1`, the pIC50 is 4.75.

With `N#Cc1ccc(-c2cn3nc(-c4ccccc4)c(-c4ccccc4)nc3n2)cc1`, the IC50 is > 20 µM (inactive).

With `O=C(Nc1ccc2nc(-c3cccs3)c(-c3cccs3)nc2c1)OCc1ccccc1`, the IC50 is > 20 µM (inactive).

As to `Cc1ccc(-c2cn3nc(-c4ccc(C)cc4)c(-c4ccc(C)cc4)nc3n2)cc1`, the pIC50 was 5.29.

Consider `O=C(Nc1ccc2nc(-c3ccccc3)c(-c3ccccc3)nc2c1)C1CCC1`, for which the IC50 was > 20 µM (inactive).

Take `Fc1ccc(-c2cn3nc(-c4ccc(F)cc4)c(-c4ccc(F)cc4)nc3n2)cc1`: the pIC50 is 5.40.

As for `CCNC(=O)Nc1ccc2nc(-c3ccccc3)c(-c3ccccc3)nc2c1`, the IC50 was > 20 µM (inactive).

Regarding `COc1ccc(-c2nc3nc(-c4ccc(OC(F)(F)F)cc4)cn3nc2-c2ccc(OC)cc2)cc1`, the pIC50 is 5.43.

As to `CCNC(=S)Nc1ccc2nc(-c3ccccc3)c(-c3ccccc3)nc2c1`, the IC50 was > 20 µM (inactive).

With `CCCS(=O)(=O)Nc1ccc2nc(-c3cccs3)c(-c3cccs3)nc2c1`, the IC50 was > 20 µM (inactive).

For `COc1ccc(-c2cn3nc(-c4ccc(C)cc4)c(-c4ccc(C)cc4)nc3n2)cc1`, the IC50 was > 20 µM (inactive).

As for `CCCOC(=O)Nc1ccc2nc(-c3cccs3)c(-c3cccs3)nc2c1`, the IC50 is > 20 µM (inactive).

Regarding `CCS(=O)(=O)Nc1ccc2nc(-c3ccccc3)c(-c3ccccc3)nc2c1`, the IC50 was > 20 µM (inactive).

With `CC(C)NC(=O)Nc1ccc2nc(-c3cccs3)c(-c3cccs3)nc2c1`, the IC50 is > 20 µM (inactive).

As to `COc1ccc(-c2nc3nc(-c4ccc(OC)cc4OC)cn3nc2-c2ccc(OC)cc2)cc1`, the IC50 is > 20 µM (inactive).

`O=C(Nc1ccc2nc(-c3ccccc3)c(-c3ccccc3)nc2c1)NC1CCCC1`: the IC50 is > 20 µM (inactive).

Turning to `Cc1ccc(-c2nc3nc(-c4cccc(F)c4)cn3nc2-c2ccc(C)cc2)cc1`, the pIC50 is 5.43.

As for `Cc1ccc(-c2nc3nc(-c4ccc(C#N)cc4)cn3nc2-c2ccc(C)cc2)cc1`, the IC50 is > 20 µM (inactive).

Turning to `CCC(=O)Nc1ccc2nc(-c3ccccc3)c(-c3ccccc3)nc2c1`, the IC50 was > 20 µM (inactive).

Regarding `CCC(=O)Nc1ccc2nc(-c3cccs3)c(-c3cccs3)nc2c1`, the IC50 is > 20 µM (inactive).

For `CC(C)(C)C(=O)Nc1ccc2nc(-c3ccccc3)c(-c3ccccc3)nc2c1`, the IC50 was > 20 µM (inactive).

Consider `O=C(Nc1ccc2nc(-c3ccccc3)c(-c3ccccc3)nc2c1)OCc1ccccc1`, for which the IC50 was > 20 µM (inactive).

Turning to `COc1cccc(-c2cn3nc(-c4ccc(C)cc4)c(-c4ccc(C)cc4)nc3n2)c1`, the negative-log IC50 (pIC50) was 5.37.

As for `O=C(Nc1ccc2nc(-c3cccs3)c(-c3cccs3)nc2c1)C1CCCC1`, the IC50 is > 20 µM (inactive).

For `O=C(Nc1ccc2nc(-c3ccccc3)c(-c3ccccc3)nc2c1)C1CCCC1`, the IC50 is > 20 µM (inactive).

`Cc1ccc(-c2nc3nc(-c4ccccc4)cn3nc2-c2ccc(C)cc2)cc1`: the pIC50 was 5.17.

`CCOC(=O)Nc1ccc2nc(-c3ccccc3)c(-c3ccccc3)nc2c1`: the IC50 is > 20 µM (inactive).

Consider `N#Cc1ccc(-c2cn3nc(-c4ccc(F)cc4)c(-c4ccc(F)cc4)nc3n2)cc1`, for which the IC50 was > 20 µM (inactive).

As for `COc1ccc(-c2nc3nc(-c4cccc(F)c4)cn3nc2-c2ccc(OC)cc2)cc1`, the pIC50 is 5.26.

Regarding `COC(=O)Nc1ccc2nc(-c3cccs3)c(-c3cccs3)nc2c1`, the IC50 was > 20 µM (inactive).

As for `Fc1ccc(-c2nc3nc(-c4ccccc4)cn3nc2-c2ccc(F)cc2)cc1`, the pIC50 was 5.02.

For the molecule `CC(=O)Nc1ccc2nc(-c3ccccc3)c(-c3ccccc3)nc2c1`, the IC50 is > 20 µM (inactive).

For the molecule `O=C(Nc1ccc2nc(-c3cccs3)c(-c3cccs3)nc2c1)NC1CCCC1`, the IC50 was > 20 µM (inactive).

In the case of `Cc1ccc(-c2cn3nc(-c4ccc(F)cc4)c(-c4ccc(F)cc4)nc3n2)cc1`, the negative logarithm of the IC50 (pIC50) is 5.14.

Consider `CS(=O)(=O)c1ccc(-c2cn3nc(-c4ccccc4)c(-c4ccccc4)nc3n2)cc1`, for which the IC50 was > 20 µM (inactive).

With `Fc1ccc(-c2cn3nc(-c4ccccc4)c(-c4ccccc4)nc3n2)cc1`, the IC50 was > 20 µM (inactive).

Consider `COc1ccccc1-c1cn2nc(-c3ccc(F)cc3)c(-c3ccc(F)cc3)nc2n1`, for which the pIC50 is 5.27.

In the case of `CCNC(=O)Nc1ccc2nc(-c3cccs3)c(-c3cccs3)nc2c1`, the pIC50 was 4.79.

`CC(C)CS(=O)(=O)Nc1ccc2nc(-c3cccs3)c(-c3cccs3)nc2c1`: the IC50 was > 20 µM (inactive).

Regarding `COc1cccc(-c2cn3nc(-c4ccc(F)cc4)c(-c4ccc(F)cc4)nc3n2)c1`, the pIC50 is 5.12.

Regarding `Fc1ccc(-c2nc3nc(-c4ccc(OC(F)(F)F)cc4)cn3nc2-c2ccc(F)cc2)cc1`, the IC50 was > 20 µM (inactive).
